The source of these data is PubChem BioAssay (NCI).

Some test systems named below: SF-539 CNS; RPMI-8226 leukemia; UACC-257 melanoma; SK-MEL-28 melanoma; NCI-H23 lung; CAKI-1 renal; SF-268 CNS; RXF 393 renal.
Common to all, as to assay: NCI tumour cell line growth inhibition, 48 h

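Step 1: Grow cells in 96-well plates. Step 2: Expose to compound for 48 hours at 5 concentrations. Step 3: Interpolate endpoints linearly; if unreached, use highest concentration. GI50 is the concentration that inhibits growth by half. TGI marks complete inhibition of growth.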

With `NS(=O)(=O)c1ccc(N(/C=C/C(=O)C(F)(F)F)CC(=O)c2ccc(F)cc2)cc1`, the GI50 was 20.9 µM in the assay on SF-539 CNS; 19.5 µM with RPMI-8226 leukemia; 22 µM in the assay with UACC-257 melanoma; 43.7 µM in the assay with SK-MEL-28 melanoma; 20.4 µM in the assay with NCI-H23 lung; 22.6 µM in the assay with CAKI-1 renal. For the same molecule, the GI50 with SF-268 CNS is 34.8 µM; with RXF 393 renal, 44 µM. The TGI was 43 µM with SF-539 CNS; 55.8 µM in the assay with RPMI-8226 leukemia; 72.8 µM with UACC-257 melanoma; greater than 100 µM in the assay on SK-MEL-28 melanoma; 57.7 µM with NCI-H23 lung; 56.9 µM in the assay on CAKI-1 renal. The TGI in the assay with SF-268 CNS and in the assay with RXF 393 renal was greater than 100 µM in each case.

Consider `O=C1C=C(Nc2ccccc2)c2ccccc2C1=O`, for which the GI50 was 1.81 µM in the assay on SF-539 CNS; 2.24 µM with RPMI-8226 leukemia; 1.79 µM with UACC-257 melanoma; 2.13 µM with SK-MEL-28 melanoma; 1.98 µM in the assay with NCI-H23 lung; 3.11 µM in the assay on CAKI-1 renal. Besides, the GI50 in the assay with SF-268 CNS is 2.67 µM; in the assay on RXF 393 renal, 2.53 µM. The TGI turned out to be 3.47 µM in the assay with SF-539 CNS; 7.49 µM with RPMI-8226 leukemia; 3.25 µM in the assay with UACC-257 melanoma; 4.46 µM in the assay on SK-MEL-28 melanoma; 4.91 µM with NCI-H23 lung; 13.7 µM in the assay with CAKI-1 renal. In addition, the TGI in the assay with SF-268 CNS is 8.71 µM; with RXF 393 renal it was 8.77 µM.

With `O=C(CCCc1ccc(N(CCCl)CCCl)cc1)NCc1ccccc1`, the GI50 is 17.8 µM in the assay on SF-539 CNS; 4.57 µM in the assay with RPMI-8226 leukemia; 12.1 µM in the assay on UACC-257 melanoma; 17.2 µM with SK-MEL-28 melanoma; 4.77 µM with NCI-H23 lung; 2.33 µM with CAKI-1 renal. Also, the GI50 was 5.69 µM with SF-268 CNS and 10.5 µM in the assay with RXF 393 renal. For the same molecule, the TGI in the assay with SF-539 CNS is 73.8 µM; in the assay with RPMI-8226 leukemia, 27.4 µM; with UACC-257 melanoma, 55.5 µM; in the assay on SK-MEL-28 melanoma, greater than 100 µM; in the assay on NCI-H23 lung it was 33.1 µM; with CAKI-1 renal, 14.4 µM. The TGI in the assay with SF-268 CNS worked out at 57.8 µM; with RXF 393 renal, 25.2 µM.

Turning to `CC1CCCCCC(=O)c2c(O)cc(O)cc2CC(=O)O1` (stereo not given), the TGI in the assay with SF-539 CNS, in the assay on RPMI-8226 leukemia, with UACC-257 melanoma, with SK-MEL-28 melanoma, with NCI-H23 lung and in the assay on CAKI-1 renal was greater than 100 µM in each case. Further, the TGI with SF-268 CNS and with RXF 393 renal was greater than 100 µM each time.

Regarding `Cn1cc(C2=C(c3ccsc3)C(=O)NC2=O)c2ccccc21`, the GI50 in the assay on SF-539 CNS was 24.2 µM; with RPMI-8226 leukemia it was greater than 25 µM; in the assay on UACC-257 melanoma it was greater than 25 µM; in the assay with SK-MEL-28 melanoma, greater than 25 µM; in the assay on NCI-H23 lung it was greater than 25 µM; in the assay with CAKI-1 renal, greater than 25 µM. The GI50 in the assay on SF-268 CNS is greater than 25 µM; with RXF 393 renal, 24.4 µM. The TGI with SF-539 CNS, in the assay on RPMI-8226 leukemia, in the assay on UACC-257 melanoma, with SK-MEL-28 melanoma, in the assay with NCI-H23 lung and in the assay on CAKI-1 renal was greater than 25 µM throughout. Also, the TGI with SF-268 CNS and in the assay with RXF 393 renal was greater than 25 µM in each case.

Regarding `O=C(O)c1ccc(N(/C=C/C(=O)C(F)(F)F)Cc2ccc(Cl)cc2)cc1`, the GI50 is 19 µM in the assay on SF-539 CNS; 29.8 µM with RPMI-8226 leukemia; 30.7 µM in the assay with UACC-257 melanoma; 32.9 µM in the assay on SK-MEL-28 melanoma; 24.7 µM in the assay with NCI-H23 lung; 34.6 µM in the assay on CAKI-1 renal. Also, the values for the GI50 in the assay on SF-268 CNS and in the assay with RXF 393 renal were greater than 100 µM and 46.3 µM, respectively. Moreover, the TGI is 42.1 µM in the assay on SF-539 CNS; greater than 100 µM in the assay with RPMI-8226 leukemia; 86.8 µM in the assay with UACC-257 melanoma; 84 µM with SK-MEL-28 melanoma; 64.8 µM with NCI-H23 lung; greater than 100 µM with CAKI-1 renal. Also, the TGI in the assay with SF-268 CNS and in the assay on RXF 393 renal was greater than 100 µM throughout.

For the molecule `COC(=O)N[C@H]1CCc2cc(OC)c(OC)c(OC)c2-c2ccc(SC)c(=O)cc21`, the GI50 with SF-539 CNS was less than 0.01 µM; in the assay with RPMI-8226 leukemia it was less than 0.01 µM; with UACC-257 melanoma, 50.7 µM; with SK-MEL-28 melanoma, greater than 100 µM; in the assay on NCI-H23 lung, less than 0.01 µM; in the assay on CAKI-1 renal it was less than 0.0166 µM. The GI50 with SF-268 CNS and with RXF 393 renal was less than 0.01 µM each time. The TGI in the assay with RPMI-8226 leukemia is greater than 64.5 µM; with UACC-257 melanoma, greater than 100 µM; with SK-MEL-28 melanoma it was greater than 100 µM; in the assay with NCI-H23 lung it was greater than 100 µM; with CAKI-1 renal it was greater than 100 µM; in the assay on SF-268 CNS it was greater than 100 µM. For the same molecule, in the assay on RXF 393 renal, the TGI is greater than 100 µM.

For the molecule `COc1cc2cc(NCc3cccc(Cl)c3)nc(C)c2cc1OC`, the GI50 in the assay with SF-539 CNS was 1.37 µM; with RPMI-8226 leukemia, 0.539 µM; with UACC-257 melanoma, 4.61 µM; with SK-MEL-28 melanoma it was 0.865 µM; in the assay on NCI-H23 lung it was 0.913 µM; in the assay on CAKI-1 renal it was 2.7 µM. In addition, the GI50 was 2.97 µM in the assay with SF-268 CNS and 3.57 µM in the assay with RXF 393 renal. In addition, the TGI was 7.54 µM in the assay with SF-539 CNS; 23.4 µM in the assay with RPMI-8226 leukemia; 19.3 µM in the assay with UACC-257 melanoma; 5.42 µM in the assay with SK-MEL-28 melanoma; 13.9 µM in the assay on NCI-H23 lung; 24.4 µM in the assay on CAKI-1 renal. Moreover, the TGI in the assay with SF-268 CNS came to 23.9 µM; in the assay on RXF 393 renal it was 16.3 µM.

As to `O=C1NC(=O)C(c2c[nH]c3ccccc23)=C1c1c[nH]c2ccccc12`, the GI50 with SF-539 CNS was 9.73 µM; with RPMI-8226 leukemia it was 9.48 µM; with UACC-257 melanoma, 15.6 µM; in the assay with SK-MEL-28 melanoma, 15.1 µM; with NCI-H23 lung it was 14.7 µM; with CAKI-1 renal, 7.37 µM. The GI50 with SF-268 CNS is 16.3 µM; in the assay with RXF 393 renal, 4.57 µM. Also, the TGI with SF-539 CNS, in the assay with RPMI-8226 leukemia, with UACC-257 melanoma, in the assay with SK-MEL-28 melanoma, in the assay with NCI-H23 lung and in the assay with CAKI-1 renal was greater than 25 µM in each case. Also, the TGI with SF-268 CNS is greater than 25 µM; in the assay with RXF 393 renal, 24.3 µM.
